Measured values published in US12577213B2 (NINGBO COMBIREG PHARMACEUTICAL TECHNOLOGY CO., LTD., priority 2020, dated 2026).
Where two headings read alike, the source gives them in different places.

What was measured:
OVCAR-3 (ovarian cancer) = assay: NCI method SRB growth inhibition, OVCAR-3; format: cell-based; conditions: Homo sapiens; OVCAR-3, treated 48 hours, SRB stain
From the text: (§1) In this embodiment, the method of National Cancer Institute (NCI) was used to evaluate the anti-tumor activity of the embodiment compounds in the present disclosure. Nine representative cell lines were selected for activity evaluation, including A549 (non-small cell lung cancer), HCT116 (colon cancer), SF295 (central nervous system tumor), LOX-IMVI (melanoma), 786-0 (renal cancer), K562 (leukemia), PC-3 (prostate cancer), OVCAR-3 (ovarian cancer) and HS 578T (breast cancer).
(§2) The specific method was as follows: 60 tumor cell lines of 9 kinds of human cancers were used to evaluate the inhibitory activity of the compound in vitro. A test group, a parallel control group and a vehicle control group were set up. The parallel control group was fixed immediately before the compound was added; the cells in the test group were fixed after being treated with the compound for 48 hours; the vehicle control group was fixed after an equal volume of complete medium was added for 48 hours. Sulforhodamine B (SRB) was used to stain, and the OD value was measured at a wavelength of 515 nm. The specific calculation method was as follows: the OD value of the parallel control group was recorded as Tz, the OD value of the vehicle control group was recorded as C, and the OD value of the test group was recorded as (Ti). If Ti≥Tz, it means that the cells still grow after the drug was added, and the growth rate %=[(Ti−Tz)/(C−Tz)]×100; if Ti<Tz, it means that the cells are killed after the drug was added, and the growth rate %=[(Ti−Tz)/Tz]×100. Three parameters were used to evaluate the anti-tumor activity of compounds in this method: 50% growth inhibitory concentration (GI50): i.e. the compound concentration at [(Ti−Tz)/(C−Tz)]×100=50; complete growth inhibitory concentration (TGI): the compound concentration at Ti=Tz; the drug concentration required to kill 50% of the cells (LC50): i.e. the compound concentration at [(Ti−Tz)/Tz]×100=−50.
(§3) The inhibitory activities of the embodiment compounds on nine representative tumor cell lines were listed in detail in Table 1. Wherein, the GI50 value means “50% growth inhibition rate”, that is, the concentration of the compound to be tested when it can inhibit […] of cell growth; “ND” means not detected.

786-0 (renal cancer) = assay: NCI method SRB growth inhibition, 786-0; format: cell-based; conditions: Homo sapiens; 786-0, treated 48 hours, SRB stain
From the text: as §1, §2, §3

[1] = Liver microsomes stability; format: in vitro ADME, human; conditions: 1 μM compound, 1 mg/mL human liver microsomes, 1 mM NADPH; for half-life at 1 μM: read-out: T½ of HLM
Experimental: The compound to be tested with final concentration of 1 μM was incubated with 1 mg/mL of human liver microsomes and 1 mM of NADPH, and a group without NADPH was set as a negative control. The reaction mixture was quenched with methanol at five time points of 0, 5, 15, 30 and 60 min, respectively, then centrifuged at 2500 rpm for 20 min to precipitate proteins, and the resulting supernatant was analyzed by LC-MS/MS. The data was analyzed and the k value and half-life T1/2 was calculated, T1/2(min)=0.693/k.
Wherein, compounds a, b and c are active compounds disclosed in patent No. ZL201610154581.3.

HCT116 (colon cancer) = assay: NCI method SRB growth inhibition, HCT116; format: cell-based; conditions: Homo sapiens, HCT-116; HCT116, treated 48 hours, SRB stain
From the text: as §1, §2, §3

[2] = tested on: SF295 (central nervous system tumor); assay: NCI method SRB growth inhibition, SF295; format: cell-based; conditions: Homo sapiens, SF-295; SF295, treated 48 hours, SRB stain
From the text: as §1, §2, §3

PC-3 (prostate cancer) = assay: NCI method SRB growth inhibition, PC-3; format: cell-based; conditions: Homo sapiens; PC-3, treated 48 hours, SRB stain
From the text: as §1, §2, §3

LOX-IMVI (melanoma) = assay: NCI method SRB growth inhibition, LOX-IMVI; format: cell-based; conditions: Homo sapiens, treated 48 hours, SRB stain
From the text: as §1, §2, §3

K562 (leukemia) = assay: NCI method SRB growth inhibition, K562; format: cell-based; conditions: Homo sapiens; K562, treated 48 hours, SRB stain
From the text: as §1, §2, §3

HS 578T (breast cancer) = assay: NCI method SRB growth inhibition, HS 578T; format: cell-based; conditions: Homo sapiens, HS578T, treated 48 hours, SRB stain
From the text: as §1, §2, §3

[3] = tested on: A549 (non-small cell lung cancer); assay: NCI method SRB growth inhibition, A549; format: cell-based; conditions: Homo sapiens; A549, treated 48 hours, SRB stain
From the text: as §1, §2, §3

| microsomal CLint at 1 μM [1] | half-life at 1 μM ([1]; human, human liver microsomes) | SMILES | GI50 (OVCAR-3 (ovarian cancer)) | GI50 (786-0 (renal cancer)) | half-life at 1 μM [1] | microsomal CLint at 1 μM ([1]; human, human liver microsomes) | GI50 (HCT116 (colon cancer)) | GI50 [2] | GI50 (PC-3 (prostate cancer)) | GI50 (LOX-IMVI (melanoma)) | GI50 (K562 (leukemia)) | GI50 (HS 578T (breast cancer)) | GI50 [3] |
| --- | --- | --- | --- | --- | --- | --- | --- | --- | --- | --- | --- | --- | --- |
| 26.5 µL/min/mg | 26.2 min | CCN(CC)C(=O)C[C@@H]1NC(=O)c2cc(Oc3cc(C)cc(C)c3)c(NC(=O)c3cc(OC)c(OC)c(OC)c3Cl)cc2NC1=O [c, reference compound] |  |  |  |  |  |  |  |  |  |  |  |
| 26.4 µL/min/mg | 26.3 min | CCN(CC)C(=O)C[C@@H]1NC(=O)c2cc(Oc3cc(C)cc(C)c3)c(NC(=O)c3cc(OC)c(OC)c(OC)c3Br)cc2NC1=O [b, reference compound] |  |  |  |  |  |  |  |  |  |  |  |
| 5.9 µL/min/mg | 117 min | [2H]C([2H])([2H])OC(=O)C[C@@H]1NC(=O)c2cc(Oc3cc(C)cc(C)c3)c(NC(=O)c3cc(OC)c(OC)c(OC)c3Cl)cc2NC1=O [Compound 9, (S)-2-[8-(2-chloro-3,4,5-trimethoxybenzamido)-7-(3,5-dimethylphenoxy)-2,5-dioxo-2,3,4,5-tetrahydro-1H-benzo[e][1,4]diazepin-3-yl]acetic acid trideuteromethyl ester] | 8.6 nM | 44.8 nM |  |  | 14.8 nM | 15.2 nM | 13.1 nM | 13.9 nM | 17 nM | 40.5 nM | 23 nM |
| 4.6 µL/min/mg | 151 min | [2H]C([2H])([2H])N(C(=O)C[C@@H]1NC(=O)c2cc(Oc3cc(C)cc(C)c3)c(NC(=O)c3cc(OC)c(OC)c(OC)c3Br)cc2NC1=O)C([2H])([2H])[2H] [Compound 22, (S)-2-bromo-N-[3-[2-[bis(trideuteromethyl)amino]-2-oxoethyl]-7-(3,5-dimethylphenoxy)-2,5-dioxo-2,3,4,5-tetrahydro-1H-benzo[e][1,4]diazepin-8-yl]-3,4,5-trimethoxybenzamide] | < 5 nM | 12.6 nM |  |  | 7.1 nM | 10 nM | < 5 nM | < 5 nM | < 5 nM |  | < 5 nM |

The remaining lines, values behind:

| SMILES | microsomal CLint at 1 μM [1] | half-life at 1 μM ([1]; human, human liver microsomes) | GI50 (OVCAR-3 (ovarian cancer)) | GI50 (786-0 (renal cancer)) | half-life at 1 μM [1] | microsomal CLint at 1 μM ([1]; human, human liver microsomes) | GI50 (HCT116 (colon cancer)) | GI50 [2] | GI50 (PC-3 (prostate cancer)) | GI50 (LOX-IMVI (melanoma)) | GI50 (K562 (leukemia)) | GI50 (HS 578T (breast cancer)) | GI50 [3] |
| --- | --- | --- | --- | --- | --- | --- | --- | --- | --- | --- | --- | --- | --- |
| [2H]C([2H])([2H])Oc1cc(C(=O)Nc2cc3c(cc2Oc2cc(C)cc(C)c2)C(=O)N(C)[C@@H](CC(=O)N(OC([2H])([2H])[2H])C([2H])([2H])[2H])C(=O)N3)c(Br)c(OC([2H])([2H])[2H])c1OC([2H])([2H])[2H] [Compound 34] |  |  | < 5 nM | < 5 nM | 72.2 min | 9.6 µL/min/mg | < 5 nM | < 5 nM | < 5 nM | < 5 nM | < 5 nM | < 5 nM | < 5 nM |
| [2H]C([2H])([2H])Oc1cc(C(=O)Nc2cc3c(cc2Oc2cc(C)cc(C)c2)C(=O)N[C@@H](CC(=O)N(C)OC([2H])([2H])[2H])C(=O)N3)c(Br)c(OC([2H])([2H])[2H])c1OC([2H])([2H])[2H] [Compound 40] | 9 µL/min/mg | 77 min | < 5 nM | < 5 nM |  |  | < 5 nM | < 5 nM | < 5 nM | < 5 nM | < 5 nM | < 5 nM | < 5 nM |
| [2H]C([2H])([2H])N1C(=O)c2cc(Oc3cc(C)cc(C)c3)c(NC(=O)c3cc(OC)c(OC)c(OC)c3Br)cc2NC(=O)[C@@H]1CC(=O)N(CC)CC [Compound 18, (S)-2-bromo-N-[3-[2-(diethylamino)-2-oxoethyl]-7-(3,5-dimethylphenoxy)-4-trideuteromethyl-2,5-dioxo-2,3,4,5-tetrahydro-1H-benzo[e][1,4]diazepin-8-yl]-3,4,5-trimethoxybenzamide] | 65.1 µL/min/mg | 10.6 min | < 5 nM | < 5 nM |  |  | < 5 nM | < 5 nM | < 5 nM | < 5 nM | < 5 nM | 15.4 nM | < 5 nM |
| [2H]C([2H])([2H])Oc1cc(C(=O)Nc2cc3c(cc2Oc2cc(C)cc(C)c2)C(=O)N(C)[C@@H](CC(=O)N(C)OC)C(=O)N3)c(Br)c(OC([2H])([2H])[2H])c1OC([2H])([2H])[2H] [Compound 32] |  |  | < 5 nM | < 5 nM | 24.7 min | 28.1 µL/min/mg | < 5 nM | 5 nM | < 5 nM | < 5 nM | < 5 nM | < 5 nM | < 5 nM |
| [2H]C([2H])([2H])Oc1cc(C(=O)Nc2cc3c(cc2Oc2cc(C)cc(C)c2)C(=O)N[C@@H](CC(=O)N(C)O)C(=O)N3)c(Br)c(OC([2H])([2H])[2H])c1OC([2H])([2H])[2H] [Compound 31] |  |  | < 5 nM | 28.1 nM | 43.3 min | 16 µL/min/mg | 17 nM | 58 nM | < 5 nM | < 5 nM | < 5 nM | 8.6 nM | < 5 nM |
| [2H]c1c(C)c([2H])c(Oc2cc3c(cc2NC(=O)c2cc(OC)c(OC)c(OC)c2Cl)NC(=O)[C@H](CC(=O)N(CC)CC)NC3=O)c([2H])c1C [Compound 24, (S)-2-chloro-N-[3-[2-(diethylamino)-2-oxoethyl]-7-(3,5-dimethyl-2,4,6-trideuterophenoxy)-2,5-dioxo-2,3,4,5-tetrahydro-1H-benzo[e][1,4]diazepin-8-yl]-3,4,5-trimethoxybenzamide] | 28.4 µL/min/mg | 24.4 min | 87.6 nM | 276 nM |  |  | 123 nM | 135 nM | 39.5 nM | 65.8 nM | 25.5 nM | 188 nM | 207 nM |
| [2H]C([2H])([2H])Oc1cc(C(=O)Nc2cc3c(cc2Oc2cc(C)cc(C)c2)C(=O)N[C@@H](CC(=O)N(CC)CC)C(=O)N3)c(Br)c(OC([2H])([2H])[2H])c1OC([2H])([2H])[2H] [Compound 4, (S)-2-bromo-N-[3-[2-(diethylamino)-2-oxoethyl]-7-(3,5-dimethylphenoxy)-2,5-dioxo-2,3,4,5-tetrahydro-1H-benzo[e][1,4]diazepin-8-yl]-3,4,5-tris(trideuteromethoxy)benzamide] | 20.5 µL/min/mg | 33.8 min | < 5 nM | 11.9 nM |  |  | < 5 nM | 6 nM | < 5 nM | < 5 nM | < 5 nM |  | < 5 nM |
| [2H]C([2H])([2H])N(C(=O)C[C@H]1C(=O)Nc2cc(NC(=O)c3cc(OC)c(OC)c(OC)c3Br)c(Oc3cc(C)cc(C)c3)cc2C(=O)N1C)C([2H])([2H])[2H] [Compound 15, (S)-2-bromo-N-[3-[2-[bis(trideuteromethyl)amino]-2-oxoethyl]-7-(3,5-dimethylphenoxy)-4-methyl-2,5-dioxo-2,3,4,5-tetrahydro-1H-benzo[e][1,4]diazepin-8-yl]-3,4,5-trimethoxybenzamide] | 10.8 µL/min/mg | 64.2 min | < 5 nM | 6.2 nM |  |  |  | < 5 nM | < 5 nM | < 5 nM | < 5 nM |  | < 5 nM |
